Assays:
C. albicans Hsp90 NBD [1] = molecular target: T1, C. albicans Hsp90 NBD (Candida albicans (strain SC5314 / ATCC MYA-2876) (Yeast), UniProt P46598); settings: cited from earlier work
C. albicans Hsp90 NBD [2] = molecular target: T1, C. albicans Hsp90 NBD; type: binding; settings: equimolar protein and ligand (10 μM)
Experimental: Using recombinant proteins, assay-independent nanomolar inhibitory constants (Ki) were defined for these compounds. Binding of the compounds to their relevant NBD by thermal shift denaturation assays was also confirmed. Thermal shift assays were performed under saturating ligand conditions, i.e. equimolar concentrations (10 μM) of protein and ligand. As a result, they can provide only qualitative evidence of target binding, but not a quantitative measurement of ligand affinity. […] […]. C. neoformans or C. albicans Hsp90 NBD was combined with equimolar concentrations of the indicated bioactive inhibitors (10 μM) or DMSO control, in technical triplicates. The protein was heated from 25 to 98.6° C. at 0.2° C./5 s in the presence of Sypro Orange dye. All compounds induce an increase in melting temperature relative to the DMSO control, reported as ΔTm.
Protein thermal shift assays. Thermal melting curves were determined using a Protein Thermal Shift Kit (ThermoFisher #4462263), employing a CFX384 Real-Time PCR System (Bio-Rad, C1000 Touch Thermal Cycler). […] Temperature shift, ΔTm, was recorded as the difference between the Tm of the fungal Hsp90 NBD with compound minus Tm of the protein without compound.

[3] = system: C. albicans clinical isolate (CaCi2); assay: Fungicidal activity: spotting of MIC cultures onto compound-free YPD agar; type: cell-based; settings: C. albicans CaCi2, spotted on YPD agar after 48 h exposure
Experimental: (§1) Color scale bar: no growth inhibition (green) to complete inhibition (black). Each shaded box represents the mean of technical duplicates. The experiment was repeated as an independent biological replicate to confirm results.
(§2) Each shaded box represents the mean of technical duplicates. Relative viable cell number was monitored by standard dye reduction assay after 3-hr incubation with resazurin at 37° C. FIG. 6B: Following exposure to compounds, aliquots of the culture in each well were spotted onto compound-free YPD agar and plates incubated at 30° C. for an additional 24 hours before imaging to assess viability. The entire experiment consisting of growth in liquid culture followed by spotting onto YPD agar was repeated once.
(§3) Antifungal sensitivity testing. […] Each compound was tested in duplicate in at least two independent experiments. […] Plates were photographed after 24 h of incubation at 30° C.

C. neoformans Hsp90 NBD = C. neoformans Hsp90 NBD (Cryptococcus neoformans, UniProt J9VVA4); assay: biochemical; type: binding; settings: SPR, 25° C., read-out: Biacore KD
Experimental: (§4) SPR assays. For SPR experiments, Hsp90 NBD expression constructs were modified to encode a C-terminal AviTag™ for site-specific on-column biotinylation with a BirA biotin-ligase kit (Avidity LLC; BirA-500). SPR experiments were performed on a Biacore T200 instrument at 25° C. Biotinylated Hsp90 NBD was diluted to 40 μg/mL and immobilized on a streptavidin chip (Sensor Chip SA, GE Healthcare) at a density of 2000-2500 response units (RU) on the biosensor surface. […] Resulting sensorgrams were analyzed with a fit to a 1:1 binding model, using BIA evaluation software.

[4] = system: C. neoformans (Strain H99); assay: Antifungal sensitivity testing (MIC), C. neoformans H99; type: cell-based
[5] = system: C. albicans clinical isolate (CaCi2); type: cell-based; settings: moderately fluconazole-resistant clinical isolate of C. albicans (CaCi2), 8 μg/mL fluconazole
Experimental: as §1, §2
Yeast strains and culture conditions. Strains used in this study were C. albicans CaCi2 (clinical isolate 2), [58] SC5314, [59] and C. neoformans H99. […] Active cultures were maintained on solid (2% agar) yeast extract peptone (YPD, 1% yeast extract, 2% bactopeptone, 2% glucose) at 4° C. for no more than one month.
as §3

C. albicans Hsp90 NBD [6] = molecular target: T1, C. albicans Hsp90 NBD; assay: biochemical; type: binding
Experimental: as §4

T1 sequence (P46598 1-240 limits assumed): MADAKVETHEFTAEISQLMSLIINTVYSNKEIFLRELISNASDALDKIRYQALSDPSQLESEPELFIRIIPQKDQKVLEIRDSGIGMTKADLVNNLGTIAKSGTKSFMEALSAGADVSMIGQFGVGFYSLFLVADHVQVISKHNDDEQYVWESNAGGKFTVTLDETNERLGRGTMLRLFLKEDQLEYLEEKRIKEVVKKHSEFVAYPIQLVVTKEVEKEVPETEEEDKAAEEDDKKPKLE
Sequence of C. neoformans Hsp90 NBD (J9VVA4 1-699): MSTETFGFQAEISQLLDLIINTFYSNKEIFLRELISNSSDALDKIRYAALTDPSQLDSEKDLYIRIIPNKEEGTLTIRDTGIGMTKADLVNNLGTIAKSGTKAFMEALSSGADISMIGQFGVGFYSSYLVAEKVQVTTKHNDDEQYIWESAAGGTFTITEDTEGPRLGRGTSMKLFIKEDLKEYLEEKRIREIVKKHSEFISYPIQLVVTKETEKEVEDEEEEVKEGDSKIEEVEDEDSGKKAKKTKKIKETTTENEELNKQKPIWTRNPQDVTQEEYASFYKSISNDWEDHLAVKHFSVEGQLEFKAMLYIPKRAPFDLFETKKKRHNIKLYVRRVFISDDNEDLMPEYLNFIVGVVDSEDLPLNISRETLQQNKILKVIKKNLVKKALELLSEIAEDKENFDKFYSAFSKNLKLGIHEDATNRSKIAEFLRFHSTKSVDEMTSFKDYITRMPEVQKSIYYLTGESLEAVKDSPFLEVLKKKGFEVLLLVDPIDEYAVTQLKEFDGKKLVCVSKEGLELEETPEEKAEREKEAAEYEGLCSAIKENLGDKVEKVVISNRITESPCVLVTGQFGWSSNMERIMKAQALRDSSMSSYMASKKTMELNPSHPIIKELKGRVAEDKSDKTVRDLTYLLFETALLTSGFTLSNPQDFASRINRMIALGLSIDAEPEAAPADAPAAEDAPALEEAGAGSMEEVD

Row | SMILES | binding selectivity for the C. albicans Hsp90 NBD compared to the human ortholog (C. albicans Hsp90 NBD [1]) | C. albicans NBD ΔTm (C. albicans Hsp90 NBD [2]) | fungicidal activity in combination with fluconazole [3] | Kd (C. neoformans Hsp90 NBD) | MIC80 ([4]; Cryptococcus neoformans, read-out: C. neo MIC80) | MIC90 ([4]; Cryptococcus neoformans, read-out: C. neo MIC90) | C. neo Active (cells) ([4]; Yes/No call) | MIC in combination with fluconazole [5] | Kd (C. albicans Hsp90 NBD [6])
1 | COc1ccc(CON=C2C=CC=CC3OC3CC(C)OC(=O)c3c(O)cc(O)cc3C2)cc1 (stereo not shown) [CMLD013075] | > 25 fold | – | – | – | – | – | – | – | –
2 | Cn1nc(-c2ccc(OC(F)(F)F)cc2)cc1Nc1cc(O)cc(O)c1C(=O)N1Cc2ccccc2C1 [Compound 130, 4-(2,3-Dihydro-1H-isoindole-2-carbonyl)-5-((1-methyl-3-(4-(trifluoromethoxy)phenyl)-1H-pyrazol-5-yl)amino)benzene-1,3-diol] | – | 9 °C | converted the fungistatic activity of fluconazole to fungicidal | 7 nM | > 25 µM | > 25 µM | No | 12.5 µM | –
3 | C[C@@H]1C[C@H]2O[C@@H]2/C=C\C=C\C(=O)Cc2c(Cl)c(O)cc(O)c2C(=O)O1 [Radicicol, radicicol] | – | – | – | 2 nM | – | – | – | – | 2 nM

Source: patent US11312722B2, “Hsp90 inhibitors and uses thereof” (TRUSTEES OF BOSTON UNIVERSITY, priority 2019, dated 2022)
